# How the values were obtained:
# recombinant human KIF18A = target: T1, recombinant human KIF18A (Homo sapiens, UniProt Q8NI77); assay: Inhibition on KIF18A enzyme activity (ADP-Glo); type: biochemical; conditions: recombinant human KIF18A 100 nM, ATP 60 μM
# T1 construct: purchased GenScript
# Protocol: Inhibition degrees of the compounds of the present invention on recombinant human KIF18A enzyme activity in vitro were determined by the following method. An ADP-Glo™ Kinase Assay kit (article number V9102) from Promega Company was used in this method. Detailed experimental operation can be referred to the instruction of the kit.
# The reaction was carried out in a 384-well microplate. The test compound and the recombinant human KIF18A protein (final concentration of 100 nM, entrusted to GenScript for expression) were added into the wells and incubated at room temperature for 20 minutes, and subsequently, ATP solution (component V915A from the ADP-Glo™ Kinase Assay kit, final concentration of 60 μM) was added to the reaction solution and the obtained system was incubated at room temperature for 20 minutes. Subsequently, 5 μL of ADP-Glo Reagent was added to the reaction system and the obtained system was incubated at room temperature for 50 minutes. Then, 10 μL of Kinase Detection Reagent was added to the reaction system, and the obtained system was incubated at room temperature for 30 minutes. After the incubation was ended, a chemiluminiscence intensity value of each well was determined by a microplate reader in a Luminescence mode.
# OVCAR-3 cells = assay: Inhibition on OVCAR-3 cell proliferation (CellTiter-Glo); type: cell-based; conditions: Homo sapiens, OVCAR-3 cells (TP53 R248Q mutation), 72 hours
# Protocol: Influences of the compounds of the present invention on OVCAR-3 cell proliferation were determined by the following method. OVCAR-3 cells (containing TP53 R248Q mutation) were purchased from the Cell Bank of Shanghai Institute of Biochemistry and Cell Biology, Chinese Academy of Sciences, and cultured in an RPMI 1640 culture medium containing […], 100 U penicillin and 100 μg/mL streptomycin. A cell viability was determined by a CellTiter-Glo® Luminescent Cell Viability Assay kit (Promega, article number G7573).
# An experimental method was operated according to steps in the instruction of the kit, which was briefly described as follows: a test compound was dissolved in DMSO first to prepare a 10 mM stock solution, then the stock solution was diluted with the above RPMI 1640 culture medium to prepare a test sample, and a final concentration of the compound was in a range of 1000 nM-0.015 nM. Cells in a logarithmic growth phase were inoculated into a 96-well cell culture plate at a density of 1000 cells per well, cultured in a 5% CO2 incubator at 37° C. overnight, and then the test compound was added to continuously culture for 72 hours. After the culture was ended, 50 μL of CellTiter-Glo detection solution was added to each well, the plates were shaken for 5 minutes, and then allowed to stand for 10 minutes, and subsequently, a luminous value of each well of sample was read by a microplate reader in a Luminescence mode. By comparing with a numerical value of a control group (0.3% DMSO), a percentage inhibition rate of the compound at each concentration was calculated, and then nonlinear regression analysis was carried out based on concentration logarithm-inhibition rate of the compound in GraphPad Prism 5 software, so as to obtain an IC50 value of the compound in inhibition on cell proliferation, which are shown in Table 1.
# T1 sequence (Q8NI77 whole entry): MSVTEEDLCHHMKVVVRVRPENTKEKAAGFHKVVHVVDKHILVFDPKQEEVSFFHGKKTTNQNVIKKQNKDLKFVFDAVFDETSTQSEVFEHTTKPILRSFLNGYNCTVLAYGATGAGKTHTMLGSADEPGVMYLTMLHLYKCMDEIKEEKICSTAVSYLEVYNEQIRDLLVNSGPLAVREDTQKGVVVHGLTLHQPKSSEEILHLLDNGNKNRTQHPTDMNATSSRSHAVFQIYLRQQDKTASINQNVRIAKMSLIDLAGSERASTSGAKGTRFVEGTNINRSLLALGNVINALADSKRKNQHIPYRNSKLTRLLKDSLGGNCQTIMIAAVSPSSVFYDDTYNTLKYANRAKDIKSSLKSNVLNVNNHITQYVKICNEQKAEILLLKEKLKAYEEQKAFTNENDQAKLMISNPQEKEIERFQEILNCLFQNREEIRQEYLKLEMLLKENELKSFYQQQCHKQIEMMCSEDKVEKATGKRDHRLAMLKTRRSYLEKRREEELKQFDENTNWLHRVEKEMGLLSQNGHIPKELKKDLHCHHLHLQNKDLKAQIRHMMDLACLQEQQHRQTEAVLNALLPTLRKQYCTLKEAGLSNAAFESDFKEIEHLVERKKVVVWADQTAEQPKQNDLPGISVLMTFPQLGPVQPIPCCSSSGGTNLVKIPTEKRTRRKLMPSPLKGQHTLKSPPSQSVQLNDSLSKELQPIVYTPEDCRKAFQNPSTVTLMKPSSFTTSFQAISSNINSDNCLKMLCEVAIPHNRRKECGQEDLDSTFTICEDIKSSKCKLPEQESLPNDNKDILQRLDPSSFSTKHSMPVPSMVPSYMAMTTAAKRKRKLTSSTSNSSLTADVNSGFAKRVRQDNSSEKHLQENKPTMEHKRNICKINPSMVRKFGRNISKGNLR
# T1 sequence (P68363 whole entry partner): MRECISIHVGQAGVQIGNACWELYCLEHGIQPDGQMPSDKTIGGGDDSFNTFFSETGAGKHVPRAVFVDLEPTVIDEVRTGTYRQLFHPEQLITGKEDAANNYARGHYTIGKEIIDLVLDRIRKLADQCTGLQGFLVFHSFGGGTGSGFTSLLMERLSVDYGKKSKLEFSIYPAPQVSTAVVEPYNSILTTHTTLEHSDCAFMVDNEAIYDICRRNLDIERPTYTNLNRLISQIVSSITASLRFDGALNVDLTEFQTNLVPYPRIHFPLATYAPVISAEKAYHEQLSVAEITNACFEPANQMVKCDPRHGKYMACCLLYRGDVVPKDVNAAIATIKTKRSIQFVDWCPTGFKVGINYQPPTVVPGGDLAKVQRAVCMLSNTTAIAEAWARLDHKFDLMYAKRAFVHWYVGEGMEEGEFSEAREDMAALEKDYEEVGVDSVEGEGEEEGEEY
# T1 sequence (Q9BVA1 whole entry partner): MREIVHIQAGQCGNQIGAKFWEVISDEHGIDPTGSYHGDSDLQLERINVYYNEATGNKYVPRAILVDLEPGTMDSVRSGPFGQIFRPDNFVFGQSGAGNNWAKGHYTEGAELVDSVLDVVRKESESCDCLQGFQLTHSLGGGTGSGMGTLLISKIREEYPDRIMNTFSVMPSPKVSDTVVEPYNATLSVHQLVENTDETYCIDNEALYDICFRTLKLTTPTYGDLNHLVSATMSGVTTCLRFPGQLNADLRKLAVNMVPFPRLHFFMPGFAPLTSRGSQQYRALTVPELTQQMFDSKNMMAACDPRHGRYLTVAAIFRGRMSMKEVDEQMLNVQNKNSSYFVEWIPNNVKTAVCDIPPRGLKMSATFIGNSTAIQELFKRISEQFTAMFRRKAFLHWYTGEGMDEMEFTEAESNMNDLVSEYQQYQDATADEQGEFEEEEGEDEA
SMILES,IC50 (recombinant human KIF18A) [nM],IC50 (OVCAR-3 cells) [nM]
"CCS(=O)(=O)Nc1ccc(C(=O)Nc2cc3c(c(N4CCC5(CC4)CC5)c2)OCC3)c(N2CCC3(CC2)CC3)c1 [Example 4, N-(7-(6-azaspiro[2.5]octan-6-yl)-2,3-dihydrobenzofuran-5-yl)-4-(ethylsulfonamido)-2-(6-azaspiro[2.5]octan-6-yl)benzamide]",212,–
"CCS(=O)(=O)Nc1ccc(C(=O)Nc2cc3c(c(N4CCC(F)(F)C4)c2)OCC3)c(N2CCC3(CC2)CC3)c1 [Example 5, N-(7-(3,3-difluoropyrrolidine-1-yl)-2,3-dihydrobenzofuran-5-yl)-4-(ethylsulfonamido)-2-(6-azaspiro[2.5]octan-6-yl)benzamide]",134,–
"CCS(=O)(=O)Nc1ccc(C(=O)Nc2cc3c(c(C4CC4)c2)OCC3)c(N2CCC3(CC2)CC3)c1 [Example 8, N-(7-cyclopropyl-2,3-dihydrobenzofuran-5-yl)-4-(ethylsulfonamido)-2-(6-azaspiro[2.5]octan-6-yl)benzamide]",90.6,–
"CCS(=O)(=O)Nc1ccc(C(=O)Nc2cc3c(c(CC(C)C)c2)OCC3)c(N2CCC3(CC2)CC3)c1 [Example 10, 4-(ethylsulfonamido)-N-(7-isobutyl-2,3-dihydrobenzofuran-5-yl)-2-(6-azaspiro[2.5]octan-6-yl)benzamide]",267,–
"CCS(=O)(=O)Nc1ccc(C(=O)Nc2cc3c(c(C4(O)CCC(F)(F)CC4)c2)OCC3)c(N2CCC3(CC2)CC3)c1 [Example 11, N-(7-(4,4-difluoro-1-hydroxycyclohexyl)-2,3-dihydrobenzofuran-5-yl)-4-(ethylsulfonamido)-2-(6-azaspiro[2.5]octan-6-yl)benzamide]",263,–
"O=C(Nc1cc2c(c(C3(O)CCC(F)(F)CC3)c1)OCC2)c1ccc(NS(=O)(=O)C2CC2)cc1N1CCC2(CC1)CC2 [Example 12, 4-(cyclopropanesulfonamido)-N-(7-(4,4-difluoro-1-hydroxycyclohexyl)-2,3-dihydrobenzofuran-5-yl)-2-(6-azaspiro[2.5]octan-6-yl)benzamide]",173,–
"CCS(=O)(=O)Nc1ccc(C(=O)Nc2cc(N3CCC(F)(F)CC3)c3cn(C)nc3c2)c(N2CCC3(CC2)CC3)c1 [Example 17, N-(4-(4,4-difluoropiperidin-1-yl)-2-methyl-2H-indazol-6-yl)-4-(ethylsulfonamido)-2-(6-azaspiro[2.5]octan-6-yl)benzamide]",280,6.6

# Next, values leading:
IC50 (recombinant human KIF18A) [nM],IC50 (OVCAR-3 cells) [nM],SMILES
197,20.3,"CCS(=O)(=O)Nc1ccc(C(=O)Nc2cc(N3CCC(F)(F)CC3)c3cn[nH]c3c2)c(N2CCC3(CC2)CC3)c1 [Example 20, N-(4-(4,4-difluoropiperidin-1-yl)-1H-indazol-6-yl)-4-(ethylsulfonamido)-2-(6-azaspiro[2.5]octan-6-yl)benzamide]"
98.5,33.2,"CCS(=O)(=O)Nc1ccc(C(=O)Nc2cc(N3CCC(F)(F)CC3)c3oc(C)nc3c2)c(N2CCC3(CC2)CC3)c1 [Example 22, N-(7-(4,4-difluoropiperidin-1-yl)-2-methylbenzo[d]oxazol-5-yl)-4-(ethylsulfonamido)-2-(6-azaspiro[2.5]octan-6-yl)benzamide]"
198,33.6,"CCS(=O)(=O)Nc1ccc(C(=O)Nc2cc(N3CCC(F)(F)C3)c3nn(C)cc3c2)c(N2CCC3(CC2)CC3)c1 [Example 25, N-(7-(3,3-difluoropyrrolidin-1-yl)-2-methyl-2H-indazol-5-yl)-4-(ethylsulfonamido)-2-(6-azaspiro[2.5]octan-6-yl)benzamide]"
256,–,Cn1cc2cc(NC(=O)c3ccc(NS(=O)(=O)C4CC4)cc3N3CCC4(CC3)CC4)cc(N3CCC(F)(F)CC3)c2n1 [Example 26]
109,1.96,"CCS(=O)(=O)Nc1ccc(C(=O)Nc2cc3c(c(N4CCOCC4)c2)C(=O)N(C)C3)c(N2CCC3(CC2)CC3)c1 [Example 27, 4-(ethylsulfonamido)-N-(2-methyl-7-morpholino-1-oxoisoindolin-5-yl)-2-(6-azaspiro[2.5]octan-6-yl)benzamide]"

# From US20260256763A1, “Aromatic Amide Derivative, And Preparation Method Therefor And Use Thereof” (Zhejiang Hisun Pharmaceutical Co., Ltd., priority 2023, published 2026)
